Laboratory results as given in patent US20220175856A1, “UNRAVELING RECEPTOR-METABOLITE INTERACTIONS IN THE HUMAN MICROBIOME” (The Rockefeller University, priority 2019, published 2022).
“Also recorded” adds a separate entry of the source. Where two headings read alike, the source gives them in different places. Values belong to the molecule of their own block, whether it stands above or below them.

What was measured:
GPR109B = GPR109B (Homo sapiens, UniProt P49019); experiment: cell-based
Excerpt: (§1) Individual bacteria from the SIHUMI consortium were fermented under anaerobic conditions in 20 L culture vessels, along with a media control containing no bacteria (FIG. 1). After 10 days, the extracellular metabolites were extracted and the crude mixture was partitioned into metabolite-rich fractions using reversed phased flash chromatography. The pre-fractionation process simplifies each fraction, thereby improving the signal in the primary screen and facilitating the downstream isolation of bioactive compounds. The fraction library was screened for agonist activity against individual GPCRs using a luminescence-based β-arrestin recruitment assay.
(§2) Compound plates were shipped on dry ice to Eurofins DiscoverX and the gperMAX and orphanMAX panels were run on all 80 samples in singleton.

[1] = target: brain angiogenesis factor 1 (BAI1) (Homo sapiens, UniProt O14514); experiment: β-arrestin recruitment GPCR agonist assay (PathHunter), BAI1; assay type: cell-based
[2] = target: T1, urotensin 2 receptor (UTR2) (Homo sapiens, UniProt Q9UKP6); experiment: β-arrestin recruitment GPCR agonist assay (PathHunter), UTR2; assay type: cell-based; conditions: for agonist activity at UTR2: result in words
T1 sequence (Q9UKP6 1-389): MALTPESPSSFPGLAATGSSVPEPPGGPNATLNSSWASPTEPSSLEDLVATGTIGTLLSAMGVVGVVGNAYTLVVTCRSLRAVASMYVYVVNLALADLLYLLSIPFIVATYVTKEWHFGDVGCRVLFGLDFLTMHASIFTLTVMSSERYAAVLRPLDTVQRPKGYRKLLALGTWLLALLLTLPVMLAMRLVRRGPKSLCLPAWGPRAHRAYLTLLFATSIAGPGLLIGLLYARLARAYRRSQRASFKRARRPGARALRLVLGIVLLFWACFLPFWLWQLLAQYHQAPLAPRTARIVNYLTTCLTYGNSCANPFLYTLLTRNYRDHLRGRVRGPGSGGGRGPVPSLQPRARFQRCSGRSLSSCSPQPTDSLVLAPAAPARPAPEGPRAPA

[3] = target: T2, NMU1R (neuromedin receptor 1) (Homo sapiens, UniProt Q9HB89); experiment: β-arrestin recruitment GPCR agonist assay (PathHunter), NMU1R; assay type: cell-based; conditions: for agonist activity at NMU1R: result in words
T2 sequence (Q9HB89 1-426): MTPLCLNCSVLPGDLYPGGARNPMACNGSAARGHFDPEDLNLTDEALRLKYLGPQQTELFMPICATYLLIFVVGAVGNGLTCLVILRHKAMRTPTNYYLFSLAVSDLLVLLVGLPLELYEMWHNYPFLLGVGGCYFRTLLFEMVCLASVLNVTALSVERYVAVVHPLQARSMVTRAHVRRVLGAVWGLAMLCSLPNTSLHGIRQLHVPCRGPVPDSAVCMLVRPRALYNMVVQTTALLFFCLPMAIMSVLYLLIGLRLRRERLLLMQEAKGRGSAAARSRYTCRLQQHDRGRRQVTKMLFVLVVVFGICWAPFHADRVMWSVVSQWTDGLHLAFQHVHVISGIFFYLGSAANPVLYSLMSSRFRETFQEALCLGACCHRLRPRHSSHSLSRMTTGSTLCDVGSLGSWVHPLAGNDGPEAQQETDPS

GPR151 = target: T3, GPR151 (Homo sapiens, UniProt Q8TDV0); experiment: β-arrestin recruitment GPCR agonist assay (PathHunter), GPR151; assay type: cell-based; conditions: Table 1, GPCR GPR151 (Q8TDV0)
T3 sequence (Q8TDV0 1-419): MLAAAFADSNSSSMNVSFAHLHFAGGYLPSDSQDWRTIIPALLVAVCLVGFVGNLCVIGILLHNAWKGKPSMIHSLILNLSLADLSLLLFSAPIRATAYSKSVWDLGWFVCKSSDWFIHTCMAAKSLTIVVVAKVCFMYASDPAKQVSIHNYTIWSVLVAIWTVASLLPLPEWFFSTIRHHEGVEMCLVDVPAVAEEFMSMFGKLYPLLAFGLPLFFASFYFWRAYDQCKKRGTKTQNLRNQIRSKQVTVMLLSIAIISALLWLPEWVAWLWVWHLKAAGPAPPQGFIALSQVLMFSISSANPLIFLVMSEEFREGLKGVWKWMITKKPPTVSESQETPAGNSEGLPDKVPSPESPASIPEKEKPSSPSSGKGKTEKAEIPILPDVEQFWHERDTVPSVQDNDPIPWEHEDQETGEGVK

HRH4 = HRH4 (Homo sapiens, UniProt Q9H3N8); experiment: β-arrestin recruitment GPCR agonist assay (PathHunter), HRH4; assay type: cell-based; conditions: result in words
[4] = test system: histamine receptor (HRH) family; experiment: β-arrestin recruitment GPCR agonist assay (PathHunter), histamine receptor family; assay type: cell-based, human; conditions: synthetic polyamines; result in words
[5] = test system: serotonin receptors (HTRs); experiment: β-arrestin recruitment GPCR agonist assay (PathHunter), serotonin receptors; assay type: cell-based, human; conditions: result in words
DRD3 = DRD3 (Homo sapiens, UniProt P35462); experiment: β-arrestin recruitment GPCR agonist assay (PathHunter), DRD3; assay type: cell-based; conditions: synthetic standard; result in words
DRD2 = experiment: β-arrestin recruitment GPCR agonist assay (PathHunter), DRD2; assay type: cell-based, human; conditions: synthetic standard; result in words
Excerpt: as §1, §2

[6] = Table 1, GPCR UTR2 (Q9UKP6), read-out: EC50 (μM), UTR2

Chain of brain angiogenesis factor 1 (BAI1) (O14514 31-1584): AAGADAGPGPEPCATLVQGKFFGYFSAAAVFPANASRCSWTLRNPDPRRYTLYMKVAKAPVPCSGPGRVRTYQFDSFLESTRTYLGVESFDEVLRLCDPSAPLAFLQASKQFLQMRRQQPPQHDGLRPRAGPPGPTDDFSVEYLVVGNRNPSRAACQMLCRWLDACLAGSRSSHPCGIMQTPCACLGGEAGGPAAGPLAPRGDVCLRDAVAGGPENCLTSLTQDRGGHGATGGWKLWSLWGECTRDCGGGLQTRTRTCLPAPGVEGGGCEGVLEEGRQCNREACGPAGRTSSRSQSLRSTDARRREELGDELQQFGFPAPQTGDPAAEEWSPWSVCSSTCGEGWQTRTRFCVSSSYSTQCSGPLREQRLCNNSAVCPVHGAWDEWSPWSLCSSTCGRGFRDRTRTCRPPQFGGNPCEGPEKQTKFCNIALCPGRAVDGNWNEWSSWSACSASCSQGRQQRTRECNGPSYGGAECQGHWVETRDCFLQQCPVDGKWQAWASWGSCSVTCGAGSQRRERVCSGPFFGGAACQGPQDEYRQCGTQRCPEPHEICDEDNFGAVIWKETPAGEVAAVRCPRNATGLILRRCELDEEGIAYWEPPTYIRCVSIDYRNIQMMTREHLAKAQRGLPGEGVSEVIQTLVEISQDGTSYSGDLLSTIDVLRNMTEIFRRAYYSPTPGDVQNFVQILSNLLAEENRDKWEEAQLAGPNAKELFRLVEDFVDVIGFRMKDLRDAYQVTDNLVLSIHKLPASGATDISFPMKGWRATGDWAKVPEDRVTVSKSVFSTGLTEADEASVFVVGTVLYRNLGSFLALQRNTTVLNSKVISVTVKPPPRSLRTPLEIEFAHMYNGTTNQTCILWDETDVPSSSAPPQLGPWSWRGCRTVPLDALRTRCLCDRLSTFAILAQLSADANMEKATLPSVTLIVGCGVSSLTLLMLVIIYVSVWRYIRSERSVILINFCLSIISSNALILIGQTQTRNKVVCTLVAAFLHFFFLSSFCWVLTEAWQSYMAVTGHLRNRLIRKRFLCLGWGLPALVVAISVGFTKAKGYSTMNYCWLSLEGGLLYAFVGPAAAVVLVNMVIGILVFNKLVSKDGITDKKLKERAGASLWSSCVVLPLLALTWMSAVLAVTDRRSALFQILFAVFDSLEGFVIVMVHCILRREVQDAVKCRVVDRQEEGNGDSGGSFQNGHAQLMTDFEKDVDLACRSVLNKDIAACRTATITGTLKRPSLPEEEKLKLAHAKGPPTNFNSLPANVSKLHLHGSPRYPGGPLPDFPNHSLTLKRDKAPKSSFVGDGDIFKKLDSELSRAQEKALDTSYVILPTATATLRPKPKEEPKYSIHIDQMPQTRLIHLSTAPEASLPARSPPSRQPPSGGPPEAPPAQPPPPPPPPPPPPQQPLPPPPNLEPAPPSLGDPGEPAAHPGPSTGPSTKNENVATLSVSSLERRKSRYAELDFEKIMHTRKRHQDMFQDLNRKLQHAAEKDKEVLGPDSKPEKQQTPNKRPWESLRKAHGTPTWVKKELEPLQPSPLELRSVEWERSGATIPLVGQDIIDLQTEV
Chain of DRD3 (P35462 whole entry): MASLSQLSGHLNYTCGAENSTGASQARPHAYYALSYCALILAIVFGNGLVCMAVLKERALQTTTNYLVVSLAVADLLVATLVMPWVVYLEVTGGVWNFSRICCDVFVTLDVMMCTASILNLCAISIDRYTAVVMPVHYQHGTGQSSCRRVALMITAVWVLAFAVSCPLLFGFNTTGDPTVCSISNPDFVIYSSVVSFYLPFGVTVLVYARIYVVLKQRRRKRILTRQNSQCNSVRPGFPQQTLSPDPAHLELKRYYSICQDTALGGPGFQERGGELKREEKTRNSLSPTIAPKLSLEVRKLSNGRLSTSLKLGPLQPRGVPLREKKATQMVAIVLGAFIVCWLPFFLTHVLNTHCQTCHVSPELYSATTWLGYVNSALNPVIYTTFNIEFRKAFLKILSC
Chain of GPR109B (P49019 whole entry): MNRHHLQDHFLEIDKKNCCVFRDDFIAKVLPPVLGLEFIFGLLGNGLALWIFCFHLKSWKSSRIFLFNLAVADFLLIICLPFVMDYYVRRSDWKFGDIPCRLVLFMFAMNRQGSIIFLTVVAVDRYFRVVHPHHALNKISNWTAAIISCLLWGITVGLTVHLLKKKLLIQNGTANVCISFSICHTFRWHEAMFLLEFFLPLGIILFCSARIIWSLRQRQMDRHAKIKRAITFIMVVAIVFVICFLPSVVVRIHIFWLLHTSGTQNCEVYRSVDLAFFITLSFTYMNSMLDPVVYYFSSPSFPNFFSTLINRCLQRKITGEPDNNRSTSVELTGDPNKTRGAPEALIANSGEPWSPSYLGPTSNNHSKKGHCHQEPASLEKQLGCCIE

SMILES: O=C(O)C=Cc1ccc(O)cc1 [4-hydroxycinnamic acid]
EC50 (GPR109B): 208 µM

SMILES: N=C(N)NCCCCN [Agmatine, agmatine, reference compound]
agonism / activation of HRH4 (HRH4): selectively agonized HRH4 but to a lesser extent than cadaverine

SMILES: NCCCCN [putrescine, reference compound]
agonism / activation of HRH4 (HRH4): selectively agonized HRH4 but to a lesser extent than cadaverine

SMILES: NCCCCNCCCN [spermidine]
HRH activity across the entire receptor family [4]: no HRH activity across the entire receptor family

SMILES: NCCc1c[nH]c2ccccc12 [tryptamine]
agonism of serotonin receptors (HTRs) [5]: can modulate serotonin receptors

SMILES: NCCc1ccc(O)cc1 [tyramine]
agonism of DRD3 (DRD3): agonism of DRD2 and DRD3 was validated | agonism of DRD2 (DRD2): agonism of DRD2 and DRD3 was validated

Now from value to molecule, other results behind:

EC50 ([1]; Table 1, GPCR BAI1 (O14514)): 3.2 µM | EC50 [2, 6]: 52 µM
SMILES: CCCCCCC1CC1CCCCCCCC(=O)O (stereo not drawn) [9,10-methylenehexadecanoic acid]
agonism of BAI1 ([1]; result in words): agonized BAIL; also recorded: BAIl-active

EC50 ([3]; Table 1, GPCR NMU1R (Q9HB89), read-out: EC50 (μM), NMU1R): 29 µM | agonist activity at NMU1R [3]: NMU1R-active | EC50 ([3]; synthetic and natural compound, read-out: EC50, agonism of NMU1R (converted)): 132 µM | EC50 (GPR151): 49 µM | EC50 [2, 6]: 49 µM | EC50 ([2]; synthetic and natural compound, read-out: EC50, agonism of UTR2 (converted)): 202 µM
SMILES: CCC(C)CCCCCCCCCCC(=O)O (stereo not drawn) [12-methylmyristic acid, 12-methyltetradecanoic acid]

EC50 (GPR151): 44 µM
SMILES: CC(C)CCCCCCCCCCCC(=O)O [13-methylmyristic acid, 13-methyltetradecanoic acid]

EC50 (GPR151): 40 µM
SMILES: CCC(C)CCCCCCCCCCCCC(=O)O (stereo not drawn) [14-methylpalmitic acid]

agonist activity at NMU1R [3]: minimal agonist activity | agonist activity at UTR2 [2]: minimal agonist activity
SMILES: CCC(C)CCCCCCCCCCCCC(=O)O (stereo not drawn) [aiC17:0, reference compound]

agonism / activation of HRH4 (HRH4; listed as Cadaverine): HRH4 agonist
SMILES: NCCCCCN [cadaverine]
agonism / activation of HRH4 (HRH4): major metabolite responsible for HRH4 activation; also recorded: HRH4 agonist

agonist activity at NMU1R [3]: minimal agonist activity | agonist activity at UTR2 [2]: minimal agonist activity
SMILES: CC(C)CCCCCCCCCCCC(=O)O [iC15:0, reference compound]
